Assay results taken from patent US5834014A, “Stimulation of hair follicles” (priority 1995, dated 1998).

Legend:
[1] = in vivo and in vitro, topical administration; cited from earlier work
[2] = transport of water-soluble material by association with nonionic vesicles

Molecule	effect of phospholipid liposomes on penetration into the skin [1]	transport by association with nonionic vesicles [2]
C[C@]12CC[C@@H]3c4ccc(O)cc4CC[C@H]3[C@@H]1CC[C@@H]2O [estradiol]	do not improve penetration	
C[C@]12CCC(=O)C=C1CC[C@@H]1[C@@H]2[C@@H](O)C[C@@]2(C)[C@H]1CC[C@]2(O)C(=O)CO [hydrocortisone]	do not improve penetration	
CC(=O)[C@H]1CC[C@H]2[C@@H]3CCC4=CC(=O)CC[C@]4(C)[C@H]3CC[C@]12C [progesterone]	do not improve penetration	
TGF-α: water-soluble material tested for transport by association with nonionic vesicles		transported to a greater extent
carboxyfluoroscein		transported to a greater extent
